Source: ChEMBL document CHEMBL5608141, “Identification of compartment-specific drug sensitivities in CRC organoid-stroma co-cultures” (2024)

Legend:
Format in all cases: functional, Homo sapiens
Parameters in all cases: dose or concentration left out as unconfirmed
Colon cancer organoid [1] = assay: Identification of compartment-specific drug sensitivities in O06 CRC organoid-stroma F06 CAF co-cultures. Organoid is transduced with Lucferase2-P2A-EGFP lentivirus, fibroblast with Renilla-dsRed lentivirus. Dual-Glo Luciferase assay is used to report viability data.
Colon cancer organoid [2] = assay: Identification of compartment-specific drug sensitivities in O14 CRC organoid-stroma F14 CAF co-cultures. Organoid is transduced with Lucferase2-P2A-EGFP lentivirus, fibroblast with Renilla-dsRed lentivirus. Dual-Glo Luciferase assay is used to report viability data.
Colon cancer organoid [3] = assay: Identification of compartment-specific drug sensitivities in O20 CRC organoid-stroma F20 CAF co-cultures. Organoid is transduced with Lucferase2-P2A-EGFP lentivirus, fibroblast with Renilla-dsRed lentivirus. Dual-Glo Luciferase assay is used to report viability data.
[4] = Transduced with Lucferase2-P2A-EGFP lentivirus
[5] = Transduced with Renilla-dsRed lentivirus

| Compound | Cell Viability (Colon cancer organoid [1]; [4]) [%] | Cell Viability (Colon cancer organoid [1]; [5]) [%] | Cell Viability (Colon cancer organoid [2]; [4]) [%] | Cell Viability (Colon cancer organoid [2]; [5]) [%] | Cell Viability (Colon cancer organoid [3]; [4]) [%] | Cell Viability (Colon cancer organoid [3]; [5]) [%] |
| --- | --- | --- | --- | --- | --- | --- |
| Cc1c(C(=O)O)cc(-c2ccc(C3CCNCC3)cc2)c2ccc(-c3ccc(C(F)(F)F)cc3)cc12.Cl | 69.2582 | 93.9723 | 68.1012 | 79.713 | 115.772 | 99.1911 |
| CCOCCn1cc(C(=O)Nc2ccc(-n3nc(-c4cccnc4)cc3C(F)(F)F)cn2)ccc1=O [BI 1935] | 87.0785 | 88.003 | 82.3072 | 94.7961 | 76.3275 | 148.205 |
| Cl.Cl.NC1(c2ccc(-c3nc4ccn5c(=O)[nH]nc5c4cc3-c3ccccc3)cc2)CCC1 | 59.9467 | 67.7481 | 76.882 | 55.4067 | 44.0229 | 145.22 |
| Cc1sc2c(c1C)C(c1ccc(Cl)cc1)=N[C@H](CC(=O)OC(C)(C)C)c1nnc(C)n1-2 | 107.283 | 109.974 | 146.34 | 95.1093 | 99.6993 | 113.657 |
| CCNC(=O)c1cc2c(N3CCOCC3C)ccnc2[nH]1 (stereo not given) | 130.766 | 119.513 | 143.994 | 130.326 | 144.452 | 100.256 |
| CN([C@@H]1CCc2c(CC(=O)O)c3ccccc3n2C1)S(=O)(=O)c1ccc(F)cc1 [MK-7246] | 70.9731 | 124.085 | 114.74 | 112.48 | 94.6909 | 109.932 |
| CC[C@H](CO)Nc1nc(NCc2ccccc2)c2ncn(C(C)C)c2n1 [SELICICLIB] | 93.234 | 112.199 | 121.256 | 106.182 | 126.177 | 75.3934 |
| CCOc1cc(N2CCC(O)CC2)ccc1Nc1ncc2c(n1)N(C1CCCC1)CCC(=O)N2C | 80.3618 | 151.464 | 84.5477 | 160.888 | 51.7552 | 144.517 |
| Cn1c(=O)[nH]c2cc(N3C(=O)c4cccc5c(CCCO)ccc(c45)C3=O)ccc21 | 115.119 | 110.623 | 148.781 | 92.4291 | 127.541 | 89.8045 |
| CCCCN(CCCC)C(=O)CN1C[C@@H](c2cc(OC)c3c(c2)OCO3)[C@H](C(=O)O)[C@H]1CC(C)(C)CCC [A-545] | 84.2855 | 55.5874 | 148.86 | 126.562 | 123.099 | 97.2502 |
| Cn1cnc2c(F)c(Nc3ccc(Br)cc3Cl)c(C(=O)NOCCO)cc21 [SELUMETINIB] | 99.2613 | 98.6384 | 44.7701 | 55.8657 | 54.0546 | 152.417 |
| C[C@@H]1CCc2ncc(F)cc2[C@H]2CCCN2c2ccn3ncc(c3n2)C(=O)N1 [SELITRECTINIB] | 101.733 | 118.761 | 99.8274 | 100.464 | 168.559 | 73.3915 |
| Cn1nc(C(=O)NCc2ccc(C(=O)O)cc2)cc1-c1ccc2[nH]ccc2c1 [BI 4395] | 119.737 | 69.3241 | 88.69 | 99.7693 | 100.657 | 92.7545 |
| O=C(/C=C/N1C[C@H]2C[C@@H]1CN2c1ccccn1)c1ccccc1O | 122.112 | 121.159 | 104.919 | 81.7789 | 99.3831 | 109.392 |
| CN(C)[C@H]1CCN(c2cc(-c3ccccc3)nc3ccnn23)C1 [(S)-ZINC-3573] | 87.7689 | 121.05 | 98.973 | 77.8832 | 93.0253 | 112.128 |
| O=C(NCCN1CCOCC1)c1ccc2c(c1)C(=O)c1ccc(Nc3ccc(F)c(NC(=O)c4ccccc4)c3)cc1CC2 [FS-694] | 67.8661 | 67.282 | 121.73 | 92.4198 | 66.3241 | 119.038 |
| O=C(O)CNC(=O)c1c(O)c2ccccc2n(Cc2ccccc2)c1=O | 145.736 | 124.036 | 107.659 | 95.196 | 96.6263 | 149.859 |
| CN(C)CCOc1ccc(-c2nc(-c3ccncc3)c(-c3ccc4c(c3)CC/C4=N\O)[nH]2)cc1 [SB590885] | 79.2379 | 96.48 | 183.636 | 84.6732 | 154.959 | 68.1541 |
| CCN(C(=O)CO)[C@H]1CN(/C(=N\C#N)Nc2cccc(OC(F)F)c2)N=C1c1ccc(Cl)c(Cl)c1 | 100.328 | 102.729 | 106.236 | 108.187 | 98.7267 | 141.776 |
| COc1cc(-c2cn([C@H]3CCc4ccccc4N(CC(F)(F)F)C3=O)nn2)ccc1-n1ccc(C)n1 | 66.2416 | 74.3796 | 96.3015 | 79.1491 | 70.0794 | 119.033 |
| CN[C@@H]1C[C@H]2O[C@@](C)([C@@H]1OC)n1c3ccccc3c3c4c(c5c6ccccc6n2c5c31)C(=O)NC4 [STAUROSPORINE] | 0.2458 | 0.5911 | 0.5717 | 0.4831 | 0.3702 | 0.5055 |
| CC1=C(C)C(=O)C(C(C)(C)CC(=O)N(CCCCSC[C@H]2O[C@@H](n3cnc4c(N)ncnc43)[C@H](O)[C@@H]2O)Cc2cccc(-c3ccc(Cl)cc3)c2)=C(C)C1=O | 117.447 | 138.552 | 65.9332 | 97.7144 | 100.369 | 114.813 |
| Cc1cnc(Nc2ccc(F)cc2Cl)nc1-c1c[nH]c(C(=O)N[C@H](CO)c2cccc(Cl)c2)c1 | 51.8597 | 63.6391 | 47.0783 | 28.0153 | 6.88 | 113.857 |
| CCC(=O)N1CCN(c2ccc(-n3c(=O)ccc4cnc5ccc(-c6cnc7ccccc7c6)cc5c43)cc2C(F)(F)F)CC1 [TORIN1] | 4.705 | 40.1911 | 10.1866 | 12.2493 | 7.451 | 44.8651 |
| CCC(=O)Nc1cccc(Oc2nc(Nc3ccc(N4CCN(C)CC4)cc3OC)ncc2Cl)c1 | 92.8013 | 94.5997 | 157.299 | 90.5023 | 125.304 | 105.023 |
